This is an account of results in patent US20160168126A1, “CHEMICAL COMPOUNDS” (SYNGENTA LIMITED, priority 2013, published 2016).

The experiment concerns a variety of test species. The experiment in a line: Post-emergence herbicidal activity (glasshouse, sprayed 8 days after sowing, evaluated after 13 days). In kind it is in vivo. As to conditions: scale 0-5. Here is the method:
Seeds of a variety of test species were sown in standard soil in pots. After 8 days cultivation (post-emergence) under controlled conditions in a glasshouse (at 24/16° C., day/night; 14 hours light; 65% humidity), the plants were sprayed with an aqueous spray solution derived from the formulation of the technical active ingredient in acetone/water (50:50) solution containing 0.5% Tween 20 (polyoxyethelyene sorbitan monolaurate, CAS RN 9005-64-5). The test plants were then grown in a glasshouse under controlled conditions (at 24/16° C., day/night; 14 hours light; 65% humidity) and watered twice daily. After 13 days, the test was evaluated (5=total damage to plant; 0=no damage to plant).

Turning to `CCC(C)(OC)c1cc(N2C(=O)C(C)=C(Cl)C2O)nn1C` (mixture of isomers) [Compound B13], for the setting “1000 g/ha”, the “Post-emergence herbicidal damage score, ABUTH (Abutilon theophrasti)” value worked out at 5; the “Post-emergence herbicidal damage score, ALOMY (Alopecurus myosuroides)” value came out at 3; the “Post-emergence herbicidal damage score, AMARE (Amaranthus retroflexus)” value came out at 3; the “Post-emergence herbicidal damage score, ECHCG (Echinochloa crus-galli)” value was 2. Moreover, under “1000 g/ha”, the “Post-emergence herbicidal damage score, SETFA (Setaria faberi)” value stood at 4 and the “Post-emergence herbicidal damage score, ZEAMX (Zea mays)” value was 0.
Take `CCOC(C)(CC)c1cc(N2C(=O)C(C)=C(Cl)C2O)nn1C` (mixture of isomers) [Compound B14]: under “1000 g/ha”, the “Post-emergence herbicidal damage score, ABUTH (Abutilon theophrasti)” value is 5; the “Post-emergence herbicidal damage score, ALOMY (Alopecurus myosuroides)” value was found to be 3; the “Post-emergence herbicidal damage score, AMARE (Amaranthus retroflexus)” value came out at 4; the “Post-emergence herbicidal damage score, ECHCG (Echinochloa crus-galli)” value is reported as 4. Besides, for the setting “1000 g/ha”, the “Post-emergence herbicidal damage score, SETFA (Setaria faberi)” value turned out to be 4 and the “Post-emergence herbicidal damage score, ZEAMX (Zea mays)” value is given as 1.
Consider `CCC(C)c1cc(N2C(=O)C(C)=C(Cl)C2O)nn1C` (mixture of isomers) [Compound B15], for which, where the note is “1000 g/ha”, the “Post-emergence herbicidal damage score, ABUTH (Abutilon theophrasti)” value is 5; the “Post-emergence herbicidal damage score, ALOMY (Alopecurus myosuroides)” value came to 4; the “Post-emergence herbicidal damage score, AMARE (Amaranthus retroflexus)” value worked out at 5; the “Post-emergence herbicidal damage score, ECHCG (Echinochloa crus-galli)” value came out at 5. Moreover, for the setting “1000 g/ha”, the “Post-emergence herbicidal damage score, SETFA (Setaria faberi)” value came to 5 and the “Post-emergence herbicidal damage score, ZEAMX (Zea mays)” value is listed as 2.
`CCOC(c1cc(N2C(=O)C(C)=C(Cl)C2O)nn1C)C(C)(C)C` (mixture of isomers) [Compound B16]: where the note is “1000 g/ha”, the “Post-emergence herbicidal damage score, ABUTH (Abutilon theophrasti)” value was 0; the “Post-emergence herbicidal damage score, ALOMY (Alopecurus myosuroides)” value was found to be 0; the “Post-emergence herbicidal damage score, AMARE (Amaranthus retroflexus)” value is reported as 0; the “Post-emergence herbicidal damage score, ECHCG (Echinochloa crus-galli)” value was 0. Further, where the note is “1000 g/ha”, the “Post-emergence herbicidal damage score, SETFA (Setaria faberi)” value turned out to be 0 and the “Post-emergence herbicidal damage score, ZEAMX (Zea mays)” value came to 0.
As for `CC1=C(Cl)C(O)N(c2cc(C(F)C(C)(C)C)n(C)n2)C1=O` (mixture of isomers) [Compound B19], where the note is “1000 g/ha”, the “Post-emergence herbicidal damage score, ABUTH (Abutilon theophrasti)” value is 4; the “Post-emergence herbicidal damage score, ALOMY (Alopecurus myosuroides)” value was determined as 2; the “Post-emergence herbicidal damage score, AMARE (Amaranthus retroflexus)” value is recorded as 4; the “Post-emergence herbicidal damage score, ECHCG (Echinochloa crus-galli)” value is listed as 3. Further, where the note is “1000 g/ha”, the “Post-emergence herbicidal damage score, SETFA (Setaria faberi)” value amounted to 4 and the “Post-emergence herbicidal damage score, ZEAMX (Zea mays)” value is 0.
Take `CC1=C(Cl)C(O)N(c2cc(C(C)C(F)(F)F)n(C)n2)C1=O` (mixture of isomers) [Compound B21]: under “1000 g/ha”, the “Post-emergence herbicidal damage score, ABUTH (Abutilon theophrasti)” value is 4; the “Post-emergence herbicidal damage score, ALOMY (Alopecurus myosuroides)” value is on record as 5; the “Post-emergence herbicidal damage score, AMARE (Amaranthus retroflexus)” value is 5; the “Post-emergence herbicidal damage score, ECHCG (Echinochloa crus-galli)” value was found to be 5. For the setting “1000 g/ha”, the “Post-emergence herbicidal damage score, SETFA (Setaria faberi)” value was 5 and the “Post-emergence herbicidal damage score, ZEAMX (Zea mays)” value was 1.
Take `CC1=C(Cl)C(O)N(c2cc(C(C)(F)C(C)(C)C)n(C)n2)C1=O` (mixture of isomers) [Compound B22]: where the note is “1000 g/ha”, the “Post-emergence herbicidal damage score, ABUTH (Abutilon theophrasti)” value is given as 1; the “Post-emergence herbicidal damage score, ALOMY (Alopecurus myosuroides)” value is recorded as 1; the “Post-emergence herbicidal damage score, AMARE (Amaranthus retroflexus)” value is recorded as 0; the “Post-emergence herbicidal damage score, ECHCG (Echinochloa crus-galli)” value is reported as 2. Further, where the note is “1000 g/ha”, the “Post-emergence herbicidal damage score, SETFA (Setaria faberi)” value came to 3 and the “Post-emergence herbicidal damage score, ZEAMX (Zea mays)” value was 1.
Turning to `CC1=C(Cl)C(O)N(c2cc3n(n2)CCC3C)C1=O` (mixture of isomers) [Compound G1], where the note is “1000 g/ha”, the “Post-emergence herbicidal damage score, ABUTH (Abutilon theophrasti)” value worked out at 5; the “Post-emergence herbicidal damage score, ALOMY (Alopecurus myosuroides)” value stood at 4; the “Post-emergence herbicidal damage score, AMARE (Amaranthus retroflexus)” value was determined as 5; the “Post-emergence herbicidal damage score, ECHCG (Echinochloa crus-galli)” value was determined as 5. For the same molecule, for the setting “1000 g/ha”, the “Post-emergence herbicidal damage score, SETFA (Setaria faberi)” value stood at 4 and the “Post-emergence herbicidal damage score, ZEAMX (Zea mays)” value was 2.
Turning to `CCC1CCn2nc(N3C(=O)C(C)=C(Cl)C3O)cc21` (mixture of isomers) [Compound G3], for the setting “1000 g/ha”, the “Post-emergence herbicidal damage score, ABUTH (Abutilon theophrasti)” value stood at 5; the “Post-emergence herbicidal damage score, ALOMY (Alopecurus myosuroides)” value is 4; the “Post-emergence herbicidal damage score, AMARE (Amaranthus retroflexus)” value turned out to be 5; the “Post-emergence herbicidal damage score, ECHCG (Echinochloa crus-galli)” value stood at 4. For the same molecule, where the note is “1000 g/ha”, the “Post-emergence herbicidal damage score, SETFA (Setaria faberi)” value came to 5 and the “Post-emergence herbicidal damage score, ZEAMX (Zea mays)” value was found to be 2.
In the case of `CCC1CCCn2nc(N3C(=O)C(C)=C(Cl)C3O)cc21` (mixture of isomers) [Compound G5], for the setting “1000 g/ha”, the “Post-emergence herbicidal damage score, ABUTH (Abutilon theophrasti)” value turned out to be 5; the “Post-emergence herbicidal damage score, ALOMY (Alopecurus myosuroides)” value is reported as 4; the “Post-emergence herbicidal damage score, AMARE (Amaranthus retroflexus)” value is on record as 5; the “Post-emergence herbicidal damage score, ECHCG (Echinochloa crus-galli)” value was found to be 4. In addition, where the note is “1000 g/ha”, the “Post-emergence herbicidal damage score, SETFA (Setaria faberi)” value is given as 4 and the “Post-emergence herbicidal damage score, ZEAMX (Zea mays)” value was 0.
As for `CC1=C(Cl)C(O)N(c2cc(C(C)(C)C)[nH]n2)C1=O` (stereo not drawn) [Compound A1], under “250 g/ha”, the “Post-emergence herbicidal damage score, ABUTH (Abutilon theophrasti)” value was determined as 5; the “Post-emergence herbicidal damage score, ALOMY (Alopecurus myosuroides)” value is 4; the “Post-emergence herbicidal damage score, AMARE (Amaranthus retroflexus)” value stood at 2; the “Post-emergence herbicidal damage score, ECHCG (Echinochloa crus-galli)” value is 5. Where the note is “250 g/ha”, the “Post-emergence herbicidal damage score, SETFA (Setaria faberi)” value is reported as 4 and the “Post-emergence herbicidal damage score, ZEAMX (Zea mays)” value was found to be 0.
Take `CC1=C(Cl)C(O)N(c2cc(C(F)(F)F)[nH]n2)C1=O` (stereo not drawn) [Compound A2]: under “1000 g/ha”, the “Post-emergence herbicidal damage score, ABUTH (Abutilon theophrasti)” value came to 4; the “Post-emergence herbicidal damage score, ALOMY (Alopecurus myosuroides)” value is on record as 1; the “Post-emergence herbicidal damage score, AMARE (Amaranthus retroflexus)” value is given as 1; the “Post-emergence herbicidal damage score, ECHCG (Echinochloa crus-galli)” value worked out at 2. Further, under “1000 g/ha”, the “Post-emergence herbicidal damage score, SETFA (Setaria faberi)” value was 2 and the “Post-emergence herbicidal damage score, ZEAMX (Zea mays)” value is given as 0.
As to `CC1=C(Cl)C(O)N(c2cc(C(C)C)[nH]n2)C1=O` (stereo not drawn) [Compound A3], for the setting “250 g/ha”, the “Post-emergence herbicidal damage score, ABUTH (Abutilon theophrasti)” value is reported as 5; the “Post-emergence herbicidal damage score, ALOMY (Alopecurus myosuroides)” value amounted to 5; the “Post-emergence herbicidal damage score, AMARE (Amaranthus retroflexus)” value worked out at 5; the “Post-emergence herbicidal damage score, ECHCG (Echinochloa crus-galli)” value worked out at 5. For the same molecule, for the setting “250 g/ha”, the “Post-emergence herbicidal damage score, SETFA (Setaria faberi)” value is given as 4 and the “Post-emergence herbicidal damage score, ZEAMX (Zea mays)” value is 1.
On to `CC1=C(Cl)C(O)N(c2cc(C3CC3)[nH]n2)C1=O` (stereo not drawn) [Compound A4], for which, under “1000 g/ha”, the “Post-emergence herbicidal damage score, ABUTH (Abutilon theophrasti)” value was 5; the “Post-emergence herbicidal damage score, ALOMY (Alopecurus myosuroides)” value is listed as 4; the “Post-emergence herbicidal damage score, AMARE (Amaranthus retroflexus)” value is on record as 4; the “Post-emergence herbicidal damage score, ECHCG (Echinochloa crus-galli)” value amounted to 5. Where the note is “1000 g/ha”, the “Post-emergence herbicidal damage score, SETFA (Setaria faberi)” value was determined as 4 and the “Post-emergence herbicidal damage score, ZEAMX (Zea mays)” value came to 1.
As for `CC1=C(Cl)C(O)N(c2cc(C)[nH]n2)C1=O` (stereo not drawn) [Compound A5], under “1000 g/ha”, the “Post-emergence herbicidal damage score, ABUTH (Abutilon theophrasti)” value came to 5; the “Post-emergence herbicidal damage score, ALOMY (Alopecurus myosuroides)” value was determined as 4; the “Post-emergence herbicidal damage score, AMARE (Amaranthus retroflexus)” value is on record as 3; the “Post-emergence herbicidal damage score, ECHCG (Echinochloa crus-galli)” value is 2. For the same molecule, for the setting “1000 g/ha”, the “Post-emergence herbicidal damage score, SETFA (Setaria faberi)” value came to 4 and the “Post-emergence herbicidal damage score, ZEAMX (Zea mays)” value was 2.
In the case of `CC1=C(Cl)C(O)N(c2cc(C(F)(F)C(F)(F)F)[nH]n2)C1=O` (stereo not drawn) [Compound A6], under “1000 g/ha”, the “Post-emergence herbicidal damage score, ABUTH (Abutilon theophrasti)” value came to 2; the “Post-emergence herbicidal damage score, ALOMY (Alopecurus myosuroides)” value is given as 1; the “Post-emergence herbicidal damage score, AMARE (Amaranthus retroflexus)” value is recorded as 3; the “Post-emergence herbicidal damage score, ECHCG (Echinochloa crus-galli)” value stood at 2. Under “1000 g/ha”, the “Post-emergence herbicidal damage score, SETFA (Setaria faberi)” value is given as 2 and the “Post-emergence herbicidal damage score, ZEAMX (Zea mays)” value came to 1.
Consider `CCC(C)(CC)c1cc(N2C(=O)C(C)=C(Cl)C2O)n[nH]1` (stereo not drawn) [Compound A7], for which, for the setting “1000 g/ha”, the “Post-emergence herbicidal damage score, ABUTH (Abutilon theophrasti)” value is 5; the “Post-emergence herbicidal damage score, ALOMY (Alopecurus myosuroides)” value came to 3; the “Post-emergence herbicidal damage score, AMARE (Amaranthus retroflexus)” value is 5; the “Post-emergence herbicidal damage score, ECHCG (Echinochloa crus-galli)” value turned out to be 5. Moreover, under “1000 g/ha”, the “Post-emergence herbicidal damage score, SETFA (Setaria faberi)” value worked out at 5 and the “Post-emergence herbicidal damage score, ZEAMX (Zea mays)” value was determined as 1.
For `CC1=C(Cl)C(O)N(c2cc(C)n(C)n2)C1=O` (stereo not drawn) [Compound B1], where the note is “1000 g/ha”, the “Post-emergence herbicidal damage score, ABUTH (Abutilon theophrasti)” value came out at 5; the “Post-emergence herbicidal damage score, ALOMY (Alopecurus myosuroides)” value worked out at 2; the “Post-emergence herbicidal damage score, AMARE (Amaranthus retroflexus)” value is listed as 5; the “Post-emergence herbicidal damage score, ECHCG (Echinochloa crus-galli)” value is 2. Further, where the note is “1000 g/ha”, the “Post-emergence herbicidal damage score, SETFA (Setaria faberi)” value came to 1 and the “Post-emergence herbicidal damage score, ZEAMX (Zea mays)” value was 1.
Take `CC1=C(Cl)C(O)N(c2cc(C(C)(C)C)n(C)n2)C1=O` (stereo not drawn) [Compound B2, 1-(5-tert-butyl-1-methyl-1H-pyrazol-3-yl)-4-chloro-5-hydroxy-3-methyl-1,5-dihydro-pyrrol-2-one]: where the note is “1000 g/ha”, the “Post-emergence herbicidal damage score, ABUTH (Abutilon theophrasti)” value is 5; the “Post-emergence herbicidal damage score, ALOMY (Alopecurus myosuroides)” value was 5; the “Post-emergence herbicidal damage score, AMARE (Amaranthus retroflexus)” value is on record as 5; the “Post-emergence herbicidal damage score, ECHCG (Echinochloa crus-galli)” value turned out to be 5. In addition, where the note is “1000 g/ha”, the “Post-emergence herbicidal damage score, SETFA (Setaria faberi)” value stood at 5 and the “Post-emergence herbicidal damage score, ZEAMX (Zea mays)” value is on record as 2.
